Source: article PMC9181938, “Fluorinated Analogues of Lepidilines A and C: Synthesis and Screening of Their Anticancer and Antiviral Activity” (Molecules, 2022)
Like-named read-outs stand apart in the source and are kept apart here.

Columns and labels:
[1] = Cytotoxicity MTT assay (0.1–1000 µM), CC50; format: cell-based, Cercopithecus aethiops; conditions: Cercopithecus aethiops, Vero cells, read-out: CC50 Normal Cell Lines Vero
[2] = Cytotoxicity MTT assay (0.1–1000 µM), CC50; format: cell-based, Macaca mulatta; conditions: Macaca mulatta, LLC-MK2 cells, LLC-MK2, MTT, 48 h; read-out: CC50 Normal Cell Lines LLC-MK2
[3] = Cytotoxicity MTT assay (0.1–1000 µM), CC50; format: cell-based, Mus musculus; conditions: Mus musculus, NCTC clone 929 cells, NCTC clone 929, MTT, 48 h; read-out: CC50 Normal Cell Lines NCTC Clone 929
[4] = Cytotoxicity MTT assay (0.1–1000 µM), CC50; format: cell-based, Human; conditions: human, MRC-5 cells, MRC-5, MTT, read-out: CC50 Normal Cell Lines MRC-5
[5] = Cytotoxicity MTT assay (0.1–1000 µM), CC50; format: cell-based, Human; conditions: human, HeLa cells, MTT, 48 h, read-out: CC50 Cancer Cell Lines HeLa
[6] = Cytotoxicity MTT assay (0.1–1000 µM), CC50; format: cell-based, Human; conditions: human, A549 cells, read-out: CC50 Cancer Cell Lines A549
[7] = Cytotoxicity MTT assay (0.1–1000 µM), CC50; format: cell-based, Human; conditions: human, HepG2 cells, read-out: CC50 Cancer Cell Lines HepG2
[8] = tested on: Human herpesvirus 5 (HCMV); experiment: Antiviral activity assay (0.1–1000 µM), IC50, plaque reduction; format: cell-based; conditions: Human betaherpesvirus 5, 20 PFU/well
Experimental: (§1) Antiviral properties of compounds 1e–1g, 1e[PF6], 8a–8d, and 9a were assessed against five viruses: Human herpesvirus 1 (HSV-1, VR-539), Human parainfluenza virus type 3 (HPIV-3, VR-93), Human adenovirus 5 (AdV5, VR-5), Human herpesvirus 5 (HCMV, VR-977), and Encephalomyocarditis virus (EMCV, VR-1479). Viruses were purchased from the American Type Culture Collection (ATCC, Manassas, VA, USA).
(§2) All tested compounds were dissolved in DMSO (dimethyl sulfoxide, Sigma-Aldrich, Darmstadt, Germany) and then suspended in Minimum Essential Medium (MEM; Sigma-Aldrich, Darmstadt, Germany) supplemented with 2% heat-inactivated fetal bovine serum (FBS; Sigma-Aldrich, Darmstadt, Germany), 2 mM L-glutamine (Sigma-Aldrich, Darmstadt, Germany), and 100 units/mL penicillin G with […] streptomycin (Sigma-Aldrich, Darmstadt, Germany).
(§3) Investigated cells were propagated in Minimum Essential Medium (MEM; Sigma-Aldrich, Darmstadt, Germany) supplemented with 10% heat-inactivated fetal bovine serum (FBS; Sigma-Aldrich, Darmstadt, Germany) and 100 units/mL penicillin G with […] streptomycin (Sigma-Aldrich, Darmstadt, Germany). After reaching 80–90% confluency, cells were harvested with trypsin (Life Technologies, Warsaw, Poland) and seeded into 96-well microplates at 2 × 10^5 cells/mL after overnight incubation of cells at 37 °C in a humidified atmosphere containing 5% CO2.
(§4) The culture medium was removed from confluent cells grown in 96-well microplates, and the cells were inoculated with virus solutions in MEM supplemented with 2% FBS and antibiotics (HSV-1 MOI 0.005, 1000 virions/mL; HPIV-3 MOI 0.01, 2000 virions/mL; AdV5 MOI 0.005, 1000 virions/mL; EMCV 0.005, 1000 virions/mL; HCMV 20 PFU/well (plaque-forming units per well). After a 1-h (HSV-1, HPIV-3, AdV5, and EMCV) or 2-h adsorption period (HCMV), residual viral particles were removed, and infected cells were further incubated with MEM supplemented with 2% FBS containing compound concentrations in the range from 0.1 to 1000 µM [38]. All experiments were carried out in triplicate. The cell monolayers were incubated with the investigated compounds at 37 °C in a humidified atmosphere containing 5% CO2 until a cytopathic effect (CPE) was visible. Viral infection was evaluated by the MTT assay (as described previously) or plaque reduction assay. HCMV plaques were counted under an inverted microscope, Olympus IX73 (Olympus, Tokyo, Japan). Antiviral activity was expressed as the concentration required to reduce the number of viral plaques to 50% of the control (virus-infected but untreated).

[9] = tested on: Encephalomyocarditis virus (EMCV); experiment: Antiviral activity assay (0.1–1000 µM), IC50; format: cell-based; conditions: Cardiovirus A, MOI 0.005, read-out: IC50 EMCV
Experimental: as §1, §2, §3, §4

[10] = tested on: Human adenovirus 5 (AdV5); experiment: Antiviral activity assay (0.1–1000 µM), IC50; format: cell-based; conditions: Human mastadenovirus C; AdV5, MOI 0.005; read-out: IC50 AdV5
Experimental: as §1, §2, §3, §4

[11] = tested on: Human herpesvirus 1 (HSV-1); experiment: Antiviral activity assay (0.1–1000 µM), IC50; format: cell-based; conditions: Human alphaherpesvirus 1; HSV-1, MOI 0.005
Experimental: as §1, §2, §3, §4

[12] = tested on: Human parainfluenza virus type 3 (HPIV-3); experiment: Antiviral activity assay (0.1–1000 µM), IC50; format: cell-based; conditions: Human respirovirus 3, HPIV-3, MOI 0.01; read-out: IC50 HPIV-3
Experimental: as §1, §2, §3, §4

LLC-MK2 cells = experiment: Cytotoxicity MTT assay (0.1–1000 µM), CC50; format: cell-based, Macaca mulatta; conditions: LLC-MK2, MTT, 48 h; read-out: CC50 Normal Cell Lines LLC-MK2

## Cc1c(C)[n+](OCc2ccccc2)cn1Cc1ccc(C(F)(F)F)cc1.[Br-] [Compound 8d, 3-Benzyloxy-4,5-dimethyl-1-[4-(trifluoromethyl)benzyl]imidazolium bromide]
[1]
  CC50 at 48 h: 229 ± 9.02 µM
[2]
  CC50 at 48 h: 7.5 ± 1 µM
[3]
  CC50 at 48 h: 283 ± 10.4 µM
[4]
  CC50 at 48 h: 59.7 ± 2.52 µM
[5]
  CC50 at 48 h: 5.5 ± 0.5 µM
[6]
  CC50 at 48 h: 5.07 ± 0.12 µM
[7]
  CC50 at 48 h: 322 ± 5.77 µM
[8]
  IC50: > 59.7 µM
[9]
  IC50: > 283 µM
[10]
  IC50: > 5.5 µM
[11]
  IC50: > 229 µM
[12]
  IC50: > 7.5 µM
other
  melting point: 180 to 182 °C (dec.)

## FC(F)(F)c1cccc(C[n+]2cn(Cc3ccccc3)c(-c3ccccc3)c2-c2ccccc2)c1.[Br-] [Compound 9a, 1-Benzyl-4,5-diphenyl-3-[3-(trifluoromethyl)benzyl]imidazolium bromide]
[2]
  CC50 at 48 h: 0.04 to 0.347 µM
LLC-MK2 cells
  CC50: 0.04 ± 0.002 µM
[3]
  CC50 at 48 h: 3.75 ± 0.087 µM
[5]
  CC50 at 48 h: 0.019 ± 0.001 µM
[6]
  CC50 at 48 h: 0.035 ± 0.005 µM
[7]
  CC50 at 48 h: 6.9 ± 0.361 µM
[8]
  IC50: > 0.09 µM
[9]
  IC50: > 3.75 µM
[10]
  IC50: > 0.019 µM
[11]
  IC50: > 0.347 µM
[12]
  IC50: > 0.04 µM
other
  melting point: 216 to 217 °C

## Cc1c(C)[n+](OCc2ccccc2)cn1Cc1cccc(F)c1.[Br-] [Compound 8a, 3-Benzyloxy-1-(3-fluorobenzyl)-4,5-dimethylimidazolium bromide]
[1]
  CC50 at 48 h: 250 ± 10 µM
[2]
  CC50 at 48 h: 327 ± 7.64 µM
[3]
  CC50 at 48 h: 257 ± 10.4 µM
[4]
  CC50 at 48 h: 206 ± 8.61 µM
[5]
  CC50 at 48 h: 20 ± 3.46 µM
[6]
  CC50 at 48 h: 7.5 ± 0.5 µM
[7]
  CC50 at 48 h: 361.7 ± 2.89 µM
[8]
  IC50: > 206 µM
[9]
  IC50: > 257 µM
[10]
  IC50: > 20 µM
[11]
  IC50: > 250 µM
[12]
  IC50: > 327 µM
other
  melting point: 124 to 126 °C

## Cc1c(C)[n+](OCc2ccccc2)cn1Cc1cccc(OC(F)(F)F)c1.[Br-] [Compound 8b, 3-Benzyloxy-4,5-dimethyl-1-[3-(trifluoromethoxy)benzyl]imidazolium bromide]
[1]
  CC50 at 48 h: 143 ± 2.89 µM
[2]
  CC50 at 48 h: 257 ± 6.77 µM
[3]
  CC50 at 48 h: 90.7 ± 4.16 µM
[4]
  CC50 at 48 h: 24.3 ± 2.08 µM
[5]
  CC50 at 48 h: 7.33 ± 0.76 µM
[6]
  CC50 at 48 h: 5.5 ± 0.5 µM
[7]
  CC50 at 48 h: 163 ± 6.43 µM
[8]
  IC50: > 24.3 µM
[9]
  IC50: > 90.7 µM
[10]
  IC50: > 7.33 µM
[11]
  IC50: > 143 µM
[12]
  IC50: > 257 µM
other
  melting point: 108 to 110 °C

## Cc1c(C)[n+](OCc2ccccc2)cn1Cc1ccccc1C(F)(F)F.[Br-] [Compound 8c, 3-Benzyloxy-4,5-dimethyl-1-(2-(trifluoromethyl)benzyl)imidazolium bromide]
[1]
  CC50 at 48 h: 53.7 ± 1.53 µM
[2]
  CC50 at 48 h: 55 ± 1 µM
[3]
  CC50 at 48 h: 28.5 ± 0.5 µM
[4]
  CC50 at 48 h: 45.7 ± 3.79 µM
[5]
  CC50 at 48 h: 16 ± 1 µM
[6]
  CC50 at 48 h: 7.37 ± 0.32 µM
[7]
  CC50 at 48 h: 95 ± 1 µM
[8]
  IC50: > 45.7 µM
[9]
  IC50: > 28.5 µM
[10]
  IC50: > 16 µM
[11]
  IC50: > 53.7 µM
[12]
  IC50: > 55 µM
other
  melting point: 123 to 125 °C

## Cc1c(C)[n+](Cc2cccc(OC(F)(F)F)c2)cn1Cc1ccccc1.[Cl-] [Compound 1f, 1-Benzyl-4,5-dimethyl-3-[3-(trifluoromethoxy)benzyl]imidazolium chloride]
[1]
  CC50 at 48 h: 38 ± 4 µM
[2]
  CC50 at 48 h: 59 ± 1 µM
[3]
  CC50 at 48 h: 48.3 ± 2.89 µM
[4]
  CC50 at 48 h: 36.7 ± 2.31 µM
[5]
  CC50 at 48 h: 0.039 ± 0.001 µM
[6]
  CC50 at 48 h: 1.6 ± 0.173 µM
[7]
  CC50 at 48 h: 152 ± 2 µM
[8]
  IC50: > 36.7 µM
[9]
  IC50: > 48.3 µM
[10]
  IC50: > 0.039 µM
[11]
  IC50: > 38 µM
[12]
  IC50: > 59 µM
other
  melting point: 108 to 110 °C
